The values that follow come from patent publication US20080287398A1, “COLD MENTHOL RECEPTOR-1 ANTAGONISTS” (priority 2007, published 2008).

The target of the assay is T1, canine TRPM8 (Canis lupus familiaris, UniProt Q1A7N1).
T1 construct: expressed in transfected cells
Kind of assay: In vitro canine TRPM8 functional assay (Ca2+-sensitive dye, FLIPR/FDSS, icilin activation). Format: cell-based. The conditions noted are these: HEK293 cells expressing canine TRPM8, icilin activation; for % I (0.5 μM): 0.5 μM compound; for IC50: eight-point dose-response; for % I (1 μM): 1 μM compound. How it is done: The functional activity of compounds of Formula (I) was determined by measuring changes in intracellular calcium concentration using a Ca^2+-sensitive fluorescent dye. The changes in fluorescent signal were monitored by a fluorescence plate reader, either a FLIPR™ (Molecular Devices) or FDSS (Hamamatsu).
HEK293 cells stably expressing canine TRPM8 were routinely grown as monolayers in Dulbecco's minimum essential medium supplemented with 10% FBS, 1 mM L-glutamine, 100 units/mL penicillin, 100 ug/mL streptomycin and 400 μg/mL G418. Cells were maintained in 5% CO2 at 37° C. At 24 hrs prior to assay, cells were seeded in clear-base poly-D-lysine coated 384-well plates (BD Biosciences, NJ, USA) at a density of 5,000 cells per well in culture medium and grown overnight in 5% CO2 at 37° C. On assay day, growth media was removed and cells were loaded with Calcium 3 Dye (Molecular Devices) for 35 min at 37° C., under 5% CO2 and then for 25 min at room temperature and atmosphere. Subsequently, cells were tested for agonist-induced increases in intracellular Ca^2+ levels using FLIPR™ or FDSS. Cells were challenged with a compound of Formula (I) (at varying concentrations) and intracellular Ca^2+ was measured for 5 min prior to the addition of icilin to all wells to achieve a final concentration which produces approximately an 80% maximal response.
Basal FI was subtracted prior to normalizing data to percent of maximal response. Curves were generated using the average of quadruplicate wells for each data point, were analyzed using nonlinear regression of either sigmoidal dose response or sigmoidal dose response (variable slope). Finally, the EC50 and IC50 values were calculated with the best-fit dose curve determined by GraphPad Prism.

Setting [1] is: HEK293, read-out: % I (1 μM), 1 μM compound.

Values joined by “and” are separate entries in the source; they are usually repeats but may differ in a detail not shown here. Equal values may be shown once. Read-outs that look alike come from different tables or passages of the source.

T1 sequence (Q1A7N1 1-1104): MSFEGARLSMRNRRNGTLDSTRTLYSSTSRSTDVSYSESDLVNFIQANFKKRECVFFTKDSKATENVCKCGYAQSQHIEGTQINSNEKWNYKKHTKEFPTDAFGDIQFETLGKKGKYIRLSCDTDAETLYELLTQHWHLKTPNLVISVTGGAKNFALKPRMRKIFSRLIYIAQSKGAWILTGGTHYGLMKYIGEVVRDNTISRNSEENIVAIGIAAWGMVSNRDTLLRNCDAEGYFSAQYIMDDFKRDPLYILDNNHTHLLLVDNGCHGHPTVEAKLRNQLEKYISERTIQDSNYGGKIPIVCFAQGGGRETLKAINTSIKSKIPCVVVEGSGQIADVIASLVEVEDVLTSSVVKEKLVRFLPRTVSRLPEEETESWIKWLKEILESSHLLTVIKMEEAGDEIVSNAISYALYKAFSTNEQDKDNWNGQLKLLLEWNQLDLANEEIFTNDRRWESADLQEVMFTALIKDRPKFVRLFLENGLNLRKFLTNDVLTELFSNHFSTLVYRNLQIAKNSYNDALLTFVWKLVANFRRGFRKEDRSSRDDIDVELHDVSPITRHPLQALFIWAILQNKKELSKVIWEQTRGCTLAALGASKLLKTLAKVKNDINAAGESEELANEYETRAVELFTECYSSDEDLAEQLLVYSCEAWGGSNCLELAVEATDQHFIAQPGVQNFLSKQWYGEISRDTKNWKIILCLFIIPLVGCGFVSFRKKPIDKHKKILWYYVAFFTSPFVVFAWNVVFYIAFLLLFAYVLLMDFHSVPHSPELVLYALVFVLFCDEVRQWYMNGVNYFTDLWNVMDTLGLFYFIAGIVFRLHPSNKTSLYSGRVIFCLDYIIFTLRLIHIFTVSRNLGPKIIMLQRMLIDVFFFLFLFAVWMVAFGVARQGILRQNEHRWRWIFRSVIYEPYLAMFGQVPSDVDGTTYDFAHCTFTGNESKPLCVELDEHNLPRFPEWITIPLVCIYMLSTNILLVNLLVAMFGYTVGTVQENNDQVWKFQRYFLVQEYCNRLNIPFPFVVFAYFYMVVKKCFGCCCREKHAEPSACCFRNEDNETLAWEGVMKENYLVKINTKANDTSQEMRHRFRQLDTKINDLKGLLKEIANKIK

On to `CCOP(=O)(OCC)C(Cc1c(F)c(F)c(O)c(F)c1F)c1sc2ccccc2c1Br` (racemic) [Cpd 228], for which the “% I (0.5 μM)” value came out at 94%. Also, the IC50 (commonly the concentration that inhibits the measured activity by half) (read-out: IC50) was 0.129 µM. Taken in the same sequence, the figures for `CC(C)OP(=O)(OC(C)C)C(Cc1c(F)c(F)c(O)c(F)c1F)c1sc2ccccc2c1Br` (racemic) [Cpd 229] were 95% and 0.156 µM.

As for `CC(C)OP(=O)(OC(C)C)C(Cc1cccc(O)c1F)c1sc2ccccc2c1Br` (racemic) [Cpd 230], the “% I (0.5 μM)” value is given as 97%. For the same compound, the IC50 (read-out: IC50) came to 0.01 µM. As for `CCOP(=O)(OCC)C(Cc1cc(O)c(Cl)cc1F)c1sc2ccccc2c1Br` (racemic) [Cpd 231], the “% I (0.5 μM)” value amounted to 98%. Besides, the IC50 (read-out: IC50) turned out to be 0.122 µM. With `CC(C)OP(=O)(OC(C)C)C(Cc1cc(O)c(Cl)cc1F)c1sc2ccccc2c1Br` (racemic) [Cpd 232], the “% I (0.5 μM)” value amounted to 99%. In addition, the IC50 (read-out: IC50) was 0.063 µM. In the case of `CCOP(=O)(OCC)C(Cc1ccc(O)c(C(F)(F)F)c1)c1sc2ccccc2c1Br` (racemic) [Cpd 233], the “% I (0.5 μM)” value was determined as 70%.

As to `CCOP(=O)(OCC)C(Cc1ccc(F)cc1C(F)(F)F)c1sc2ccccc2c1Br` (racemic) [Cpd 245], the “% I (0.5 μM)” value was found to be 103%. Further, under “read-out: IC50”, the IC50 came to 0.124 µM.

As for `CCOP(=O)(OCC)C(Cc1ccc(SC)cc1)c1sc2ccccc2c1Br` (racemic) [Cpd 247], the “% I (0.5 μM)” value worked out at 103%. Where the note is “read-out: IC50”, the IC50 stood at 0.121 µM. `CC(C)OP(=O)(OC(C)C)C(Cc1ccc(F)c(Cl)c1)c1sc2ccccc2c1Br` (racemic) [Cpd 248]: the “% I (0.5 μM)” value turned out to be 104%. For the same compound, the IC50 (read-out: IC50) was determined as 0.021 µM. The corresponding values for `CCOP(=O)(OCC)C(Cc1ccccc1C(F)(F)F)c1sc2ccccc2c1Cl` (racemic) [Cpd 279] are 97% and 0.291 µM. The corresponding values for `CCOP(=O)(OCC)C(Cc1cccc(C(F)(F)F)c1Cl)c1sc2ccccc2c1Cl` (racemic) [Cpd 280] are 101% and 0.227 µM.

As to `CCOP(=O)(OCC)C(Cc1cccc(C(F)(F)F)c1F)c1sc2ccccc2c1Cl` (racemic) [Cpd 281], the “% I (0.5 μM)” value is 102%. Further, the IC50 (read-out: IC50) was 0.131 µM. Taken in the same sequence, the figures for `CCOP(=O)(OCC)C(Cc1cc(C(F)(F)F)cc(C(F)(F)F)c1)c1sc2ccccc2c1Cl` (racemic) [Cpd 282] were 100% and 0.235 µM.

As for `CCOP(=O)(OCC)C(Cc1ccc(SC(F)(F)F)cc1)c1sc2ccccc2c1Cl` (racemic) [Cpd 283], the “% I (0.5 μM)” value is 103%. For the same compound, under “read-out: IC50”, the concentration for half-maximal inhibition (IC50) was 0.125 µM. As to `CCOP(=O)(OCC)C(Cc1ccc(F)cc1)c1sc2ccccc2c1Cl` (racemic) [Cpd 284], the “% I (0.5 μM)” value was 103% and 102%. In addition, under “read-out: IC50”, the IC50 is 0.079 µM and 0.065 µM. For the compound `CCOP(=O)(OCC)C(Cc1ccc(C(F)(F)F)cc1)c1sc2ccccc2c1Cl` (racemic) [Cpd 285], the “% I (0.5 μM)” value was 103%. For the same compound, the IC50 (read-out: IC50) was 0.125 µM. For `CCOP(=O)(OCC)C(Cc1cc(C(F)(F)F)ccc1F)c1sc2ccccc2c1Cl` (racemic) [Cpd 286], the “% I (0.5 μM)” value was found to be 102%. In addition, the concentration for half-maximal inhibition (IC50) (read-out: IC50) was determined as 0.127 µM. Taken in the same sequence, the figures for `CCOP(=O)(OCC)C(Cc1ccc(Cl)c(C(F)(F)F)c1)c1sc2ccccc2c1Cl` (racemic) [Cpd 287] were 103% and 0.124 µM.

In the case of `CC(C)OP(=O)(OC(C)C)C(Cc1ccc(Cl)cc1)c1sc2ccccc2c1Br` (racemic) [Cpd 288], the “% I (0.5 μM)” value was determined as 103%. Further, for the setting “read-out: IC50”, the IC50 is 0.065 µM. As for `CC(C)OP(=O)(OC(C)C)C(Cc1ccc(C(F)(F)F)cc1F)c1sc2ccccc2c1Br` (racemic) [Cpd 289], the “% I (0.5 μM)” value turned out to be 103%. Further, the IC50 (read-out: IC50) was 0.051 µM. For the compound `CCOP(=O)(OCC)C(Cc1cccc(Cl)c1)c1sc2ccccc2c1Cl` (racemic) [Cpd 290], the “% I (0.5 μM)” value is on record as 103%. Further, for the setting “read-out: IC50”, the IC50 is 0.115 µM. The corresponding values for `CCOP(=O)(OCC)C(Cc1ccc(C(F)(F)F)cc1F)c1sc2ccccc2c1Cl` (racemic) [Cpd 291] are 103% and 0.156 µM.

As for `CCOP(=O)(OCC)C(Cc1ccc(OC)c(C(F)(F)F)c1)c1sc2ccccc2c1Cl` (racemic) [Cpd 292], the “% I (0.5 μM)” value worked out at 99%. Further, the concentration for half-maximal inhibition (IC50) (read-out: IC50) came to 0.216 µM.

On to `CCOP(=O)(OCC)C(Cc1ccc(Cl)cc1)c1sc2ccccc2c1Cl` (racemic) [Cpd 293], for which the “% I (0.5 μM)” value came out at 103%. The IC50 (read-out: IC50) was found to be 0.156 µM. Taken in the same sequence, the figures for `CCOP(=O)(OCC)C(Cc1ccc(F)c(C(F)(F)F)c1)c1sc2ccccc2c1Cl` (racemic) [Cpd 294] were 103% and 0.118 µM. Take `CCOP(=O)(OCC)C(Cc1cccc(Br)c1)c1sc2ccccc2c1Br` (racemic) [Cpd 295]: the “% I (0.5 μM)” value is 102% and 103%. Further, for the setting “read-out: IC50”, the IC50 was 0.031 µM and 0.016 µM.

`CCOP(=O)(OCC)C(Cc1ccc(F)c(Cl)c1)c1sc2ccccc2c1Cl` (racemic) [Cpd 297]: the “% I (0.5 μM)” value was determined as 103%. Besides, under “read-out: IC50”, the IC50 is 0.04 µM. Regarding `CCOP(=O)(OCC)C(Cc1ccc(S(=O)(=O)C(F)(F)F)cc1)c1sc2ccccc2c1Cl` (racemic) [Cpd 300], the “% I (0.5 μM)” value is 103%. Moreover, under “read-out: IC50”, the IC50 is 0.089 µM.

Regarding `CC(C)OP(=O)(OC(C)C)C(Cc1cccc(OC(F)(F)F)c1)c1sc2ccccc2c1Cl` (racemic) [Cpd 301], the “% I (0.5 μM)” value came to 102%. The concentration for half-maximal inhibition (IC50) (read-out: IC50) worked out at 0.054 µM.

With `CC(C)OP(=O)(OC(C)C)C(Cc1ccc(Cl)c(F)c1)c1sc2ccccc2c1Cl` (racemic) [Cpd 302], the “% I (0.5 μM)” value is reported as 103%. For the same compound, the IC50 (read-out: IC50) was found to be 0.079 µM. Taken in the same sequence, the figures for `CC(C)OP(=O)(OC(C)C)C(Cc1cc(Cl)ccc1F)c1sc2ccccc2c1Cl` (racemic) [Cpd 303] were 102% and 0.049 µM. Taken in the same sequence, the figures for `CC(C)OP(=O)(OC(C)C)C(Cc1ccc(SC(F)(F)F)cc1)c1sc2ccccc2c1Cl` (racemic) [Cpd 304] were 102% and 0.028 µM. On to `CCOP(=O)(OCC)C(Cc1cc(Cl)ccc1F)c1sc2ccccc2c1Cl` (racemic) [Cpd 305], for which the “% I (0.5 μM)” value amounted to 102%. For the same compound, the IC50 (read-out: IC50) was 0.07 µM. Turning to `CC(C)OP(=O)(OC(C)C)C(Cc1ccc(F)cc1)c1sc2ccccc2c1Cl` (racemic) [Cpd 306], the “% I (0.5 μM)” value is 101% and 102%. With `CCOP(=O)(OCC)C(Cc1cc(Cl)ccc1F)c1sc2ccccc2c1Br` (racemic) [Cpd 307], the “% I (0.5 μM)” value was 103%. For the same compound, for the setting “read-out: IC50”, the IC50 stood at 0.026 µM.

Turning to `CC(C)OP(=O)(OC(C)C)C(Cc1cc(Cl)ccc1F)c1sc2ccccc2c1Br` (racemic) [Cpd 308], the “% I (0.5 μM)” value came out at 103%. For the same compound, under “read-out: IC50”, the IC50 came out at 0.017 µM. Consider `CCOP(=O)(OCC)C(Cc1ccc(F)c(F)c1)c1sc2cccc(F)c2c1C` (stereo not drawn) [Cpd 3, [2-(3,4-Difluoro-phenyl)-1-(4-fluoro-3-methyl-benzo[b]-thiophene-2-yl)-ethyl]-phosphonic acid diethyl ester], for which the inhibition at 1 µM under setting [1] was found to be 100%. For the same compound, the IC50 (IC50 (μM)) is 0.012 µM and 0.051 µM. For the compound `CCOP(=O)(CC(C)C)C(Cc1ccc(F)c(F)c1)c1sc2ccccc2c1C` (stereo not drawn) [Cpd 6, [2-(3,4-Difluoro-phenyl)-1-(3-methyl-benzo[b]thiophene-2-yl)-ethyl]-isobutyl-phosphonic acid ethyl ester], the “% I (1 μM)” value is given as 100%. The 50% inhibitory concentration (IC50) (read-out: IC50) stood at 0.028 µM. On to `CCOP(=O)(OCC)C(Cc1ccc(F)c(F)c1)c1sc2c(F)cccc2c1C` (stereo not drawn) [Cpd 8, [2-(3,4-Difluoro-phenyl)-1-(7-fluoro-3-methyl-benzo[b-]thiophene-2-yl)-ethyl]-phosphonic acid diethyl ester], for which the inhibition at 1 µM under setting [1] amounted to 100%. Where the note is “IC50 (μM)”, this compound returned an IC50 of 0.037 µM. Taken in the same sequence, the figures for `CCOP(=O)(OCC)C(Cc1ccc(F)c(F)c1)c1oc2ccccc2c1C` (stereo not drawn) [Cpd 9, [2-(3,4-Difluoro-phenyl)-1-(3-methyl-benzofuran-2-yl)-ethyl]-phosphonic acid diethyl ester] were 100% and 0.041 µM. In the case of `CCOP(=O)(OCC)C(Cc1cccc(F)c1F)c1sc2ccccc2c1C` (stereo not drawn) [Cpd 10], the “% I (1 μM)” value is 100%. Besides, under “read-out: IC50”, the IC50 is 0.043 µM. Take `Cc1c(C(Cc2ccc(F)c(F)c2)P(=O)(OC(C)C)OC(C)C)oc2ccccc12` (stereo not drawn) [Cpd 11]: the “% I (1 μM)” value was 99% and 103%. The IC50 (read-out: IC50) is 0.043 µM and 0.047 µM.

On to `Cc1c(C(OCc2ccc(F)c(F)c2)P(=O)(CC(C)C)CC(C)C)sc2ccccc12` (stereo not drawn) [Cpd 13, 2-[(3,4-Difluoro-benzyloxy)-(diisobutyl-phosphinoyl)-methyl]-3-methyl-benzo[b]thiophene], for which the inhibition at 1 µM (HEK293, 1 μM compound, read-out: % I (1 μM)) was 100%. Where the note is “read-out: IC50”, the IC50 stood at 0.046 µM.
